# Results reported in paper PMC7281072 (Cancers, 2020).
# Assays:
# ERK1,2 phosphorylation [1] = assay: ERK1/2 phosphorylation ELISA, UWB1.289+BRCA1 cells; type: cell-based, human; settings: for Vmax ± SE, pERK 1/2 inhibition: Michaelis Menten model; for IC50: Homo sapiens, read-out: IC50, pERK 1/2 inhibition
# AKT1,2 phosphorylation [2] = assay: AKT phosphorylation ELISA, OVCAR-3 cells; type: cell-based, human; settings: for Vmax ± SE, pAKT 1/2 inhibition: Michaelis Menten model; for IC50: Homo sapiens, read-out: IC50, pAKT 1/2 inhibition
# ERK1,2 phosphorylation [3] = assay: ERK1/2 phosphorylation ELISA, SK-OV-3 cells; type: cell-based, human; settings: for Vmax ± SE, pERK 1/2 inhibition: Michaelis Menten model; for IC50: Homo sapiens, read-out: IC50, pERK 1/2 inhibition
# AKT1,2 phosphorylation [4] = assay: AKT phosphorylation ELISA, UWB1.289 cells; type: cell-based, human; settings: for Vmax ± SE, pAKT 1/2 inhibition: Michaelis Menten model; for IC50: Homo sapiens, read-out: IC50, pAKT 1/2 inhibition
# [5] = tested on: SKOV-3 human ovarian adenocarcinoma xenograft; design: species or system CB17 SCID mice; settings: mouse, in vivo
# [6] = tested on: UWB1.289+BRCA1 cancer cell line
# AKT1,2 phosphorylation [7] = assay: AKT phosphorylation ELISA, SK-OV-3 cells; type: cell-based, human; settings: for Vmax ± SE, pAKT 1/2 inhibition: Michaelis Menten model; for IC50: Homo sapiens, read-out: IC50, pAKT 1/2 inhibition
# CB17 SCID mice = settings: both, mouse, in vivo, ip
# ERK1,2 phosphorylation [8] = assay: ERK1/2 phosphorylation ELISA, OVCAR-5 cells; type: cell-based, human; settings: for Vmax ± SE, pERK 1/2 inhibition: Michaelis Menten model; for IC50: Homo sapiens, read-out: IC50, pERK 1/2 inhibition
# pERK1,2 = assay: Western immunoblotting densitometry, pERK1,2, SKOV-3 cells; type: cell-based, human; settings: 25 μM; for ratio [pERK1+pERK2]/[GAPDH] band intensity: SKOV-3 cells
compound,measurement,setting,value
"C[C@]12CC[C@H]3[C@@H](CCC4=CC(=O)NCC[C@@]43C)[C@@H]1CC[C@@H]2OC(=O)CCOc1ccc(N(CCCl)CCCl)cc1 [ENGA-L06E, 5a,7a-dimethyl-2-oxo-2,3,4,5,5a,5b,6,7,7a,8,9,10,10a,10b,11,12-hexa decahydrocyclopenta [5, 6] naphtho [1,2-d] azepin-8-yl 3-(4-(bis(2-chloroethyl)amino)phenoxy) propanoate]",TGI (Total Growth Inhibition),OVCAR-5 cancer cell line,42 ± 2.8 μΜ
same,"Vmax ± SE, pERK 1/2 inhibition","ERK1,2 phosphorylation [1]; 15 min",59.43 ± 1.10
same,"Vmax ± SE, pERK 1/2 inhibition","ERK1,2 phosphorylation [1]; 30 min",72.79 ± 1.14
same,"Vmax ± SE, pERK 1/2 inhibition","ERK1,2 phosphorylation [1]; 60 min",74.35 ± 0.49
same,IC50,"ERK1,2 phosphorylation [1]; 0.25 h, 15 min",28.7 µM
same,IC50,"ERK1,2 phosphorylation [1]; 0.5 h, 30 min",12.4 µM
same,IC50,"ERK1,2 phosphorylation [1]; 1 h, 60 min",9.29 µM
same,"Vmax ± SE, pAKT 1/2 inhibition","AKT1,2 phosphorylation [2]; 15 min",57.71 ± 5.51
same,"Vmax ± SE, pAKT 1/2 inhibition","AKT1,2 phosphorylation [2]; 30 min",60.76 ± 2.97
same,"Vmax ± SE, pAKT 1/2 inhibition","AKT1,2 phosphorylation [2]; 60 min",62.20 ± 5.12
same,IC50,"AKT1,2 phosphorylation [2]; 0.25 h, 15 min",29.1 µM
same,IC50,"AKT1,2 phosphorylation [2]; 0.5 h, 30 min",24.4 µM
same,IC50,"AKT1,2 phosphorylation [2]; 1 h, 60 min",18.3 µM
same,"Vmax ± SE, pERK 1/2 inhibition","ERK1,2 phosphorylation [3]; 15 min",79.14 ± 2.62
same,"Vmax ± SE, pERK 1/2 inhibition","ERK1,2 phosphorylation [3]; 30 min",82.95 ± 1.69
same,"Vmax ± SE, pERK 1/2 inhibition","ERK1,2 phosphorylation [3]; 60 min",84.71 ± 1.60
same,IC50,"ERK1,2 phosphorylation [3]; 0.25 h, 15 min",13 µM
same,IC50,"ERK1,2 phosphorylation [3]; 0.5 h, 30 min",11 µM
same,IC50,"ERK1,2 phosphorylation [3]; 1 h, 60 min",8.78 µM
same,"Vmax ± SE, pAKT 1/2 inhibition","AKT1,2 phosphorylation [4]; 15 min",62.12 ± 1.41
same,"Vmax ± SE, pAKT 1/2 inhibition","AKT1,2 phosphorylation [4]; 30 min",64.94 ± 4.22
same,"Vmax ± SE, pAKT 1/2 inhibition","AKT1,2 phosphorylation [4]; 60 min",71.12 ± 3.34
same,IC50,"AKT1,2 phosphorylation [4]; UWB1289, 0.25 h, 15 min",16.9 µM
same,IC50,"AKT1,2 phosphorylation [4]; UWB1289, 0.5 h, 30 min",14.4 µM
same,IC50,"AKT1,2 phosphorylation [4]; UWB1289, 1 h, 60 min",11.8 µM
same,Median Overall Survival (OS),[5],112 days
same,Progression Free Survival (PFS),[5],11 days
same,Response Rate (RR),[5],100%
same,Cures (mice alive for 120 days after tumor inoculation),[5]; ip,2/5
same,MST (mean survival time),[5]; ip,79.6 ± 4.0 p < 0.01 Days
same,T/C% (mean survival time of treated versus saline controls),[5]; ip,195.6%
same,TI% (Tumor Inhibition),[5]; ip,67.6%
same,size of the primary tumor,[5]; ip,478 ± 18.3 mm^3
same,TGI (Total Growth Inhibition),[6],28 ± 1.9 μΜ
same,"Vmax ± SE, pAKT 1/2 inhibition","AKT1,2 phosphorylation [7]; 15 min",79.23 ± 0.39
same,"Vmax ± SE, pAKT 1/2 inhibition","AKT1,2 phosphorylation [7]; 30 min",86.10 ± 1.13
same,"Vmax ± SE, pAKT 1/2 inhibition","AKT1,2 phosphorylation [7]; 60 min",87.27 ± 0.59
same,IC50,"AKT1,2 phosphorylation [7]; 0.25 h, 15 min",25.9 µM
same,IC50,"AKT1,2 phosphorylation [7]; 0.5 h, 30 min",22.3 µM
same,IC50,"AKT1,2 phosphorylation [7]; 1 h, 60 min",21.4 µM
same,LD10,CB17 SCID mice,120 mg/kg
same,"Vmax ± SE, pERK 1/2 inhibition","ERK1,2 phosphorylation [8]; 15 min",68.95 ± 3.21
same,"Vmax ± SE, pERK 1/2 inhibition","ERK1,2 phosphorylation [8]; 30 min",74.99 ± 2.47
same,"Vmax ± SE, pERK 1/2 inhibition","ERK1,2 phosphorylation [8]; 60 min",80.67 ± 1.52
same,IC50,"ERK1,2 phosphorylation [8]; 0.25 h, 15 min",20 µM
same,IC50,"ERK1,2 phosphorylation [8]; 0.5 h, 30 min",14.1 µM
same,IC50,"ERK1,2 phosphorylation [8]; 1 h, 60 min",9.18 µM
same,ratio [pERK1+pERK2]/[GAPDH] band intensity,"pERK1,2; 15min, control ratio 1.70",1.91
same,ratio [pERK1+pERK2]/[GAPDH] band intensity,"pERK1,2; 30min, control ratio 1.70",1.74
same,ratio [pERK1+pERK2]/[GAPDH] band intensity,"pERK1,2; 1h, control ratio 1.78",1.35
same,ratio [pERK1+pERK2]/[GAPDH] band intensity,"pERK1,2; 3h, control ratio 1.74",0.68
same,ratio [pERK1+pERK2]/[GAPDH] band intensity,"pERK1,2; 12h, control ratio 1.61",0.65
same,"ratio [pERK1+pERK2]/[GAPDH] band intensity, single blot (panel A)","pERK1,2; panel A lower set, cell line not given, 1h, control ratio 1.78",0.99
